According to patent US8211861B2, “Compositions for and methods of enhancing the immune response to antigens” (Wittycell, priority 2007, dated 2012):

B1: ovalbumin (protein, UniProt P01012 2-386, looked up)
Ovalbumin: GSIGAASMEFCFDVFKELKVHHANENIFYCPIAIMSALAMVYLGAKDSTRTQINKVVRFDKLPGFGDSIEAQCGTSVNVHSSLRDILNQITKPNDVYSFSLASRLYAEERYPILPEYLQCVKELYRGGLEPINFQTAADQARELINSWVESQTNGIIRNVLQPSSVDSQTAMVLVNAIVFKGLWEKAFKDEDTQAMPFRVTEQESKPVQMMYQIGLFRVASMASEKMKILELPFASGTMSMLVLLPDEVSGLEQLESIINFEKLTEWTSSNVMEERKIKVYLPRMKMEEKYNLTSVLMAMGITDVFSSSANLSGISSAESLKISQAVHAAHAEINEAGREVVGSAEAGVDAASVSEEFRADHPFLFCIKHIATNAVLFFGRCVSP
notes: nominal antigen, Ovalbumin grade VII, Sigma

What was measured:
[1] = tested on: Ova-specific target cells; test: in vivo specific cytotoxic T cell (CD8+) response, specific lysis of Ova-specific target cells; parameters: species or system mouse; conditions: for specific lysis of Ova-specific target cells in blood: Example 1, FIG. 1, 1 μg adjuvant with 50 μg Ova, day 0, target cells day 10, read day 11; for specific lysis of Ova-specific target cells in blood / average Ova-specific cytotoxic response (percent specific lysis): IV; for percentage of specific lysis of the target cells by CD8+ T cells: Example 5 Experiment B, FIG. 8, 50 μg OVA with 10 ng adjuvant; for percentage of specific lysis of the target cells by CD8+ T cells / average OVA-specific cytotoxic response (percent specific lysis) / enhancement of the CD8+ T cell response at low doses (specific lysis): IM; for percentage of specific lysis of the target cells by CD8+ T cells / average Ova-specific cytotoxic response (percent specific lysis) / average OVA-specific cytotoxic response (percent specific lysis): blood day 11; for average Ova-specific cytotoxic response (percent specific lysis): Example 2, FIG. 2; for average Ova-specific cytotoxic response (percent specific lysis) / average OVA-specific cytotoxic response (percent specific lysis): 400 μg Ova with or without 1 μg adjuvant; for average OVA-specific cytotoxic response (percent specific lysis): Example 2, FIG. 3; for enhancement of the CD8+ T cell response at low doses (specific lysis): Example 5, FIGS. 7 and 8, 50 μg OVA with 100 ng or 10 ng adjuvant
[2] = tested on: CD8+ T cells responsive to OVA; test: SIINFEKL pentamer assay, percentage of OVA-specific CD8+ T cells; type: in vivo, mouse; conditions: IM, days 0 and 14, blood day 21
Procedure: To verify the results obtained using the in vivo cytotoxicity assay described in the Examples above, similar experiments were performed and CD8+ T cell activation was determined by measuring the percentage of OVA-specific CD8+ T cells using a pentamer assay. Briefly, mice were injected intramuscularly with the indicated amounts of OVA and test adjuvant compound at either 1 μg or 100 ng per mouse, respectively on day 0 as follows:
Experiment A: • Group 1: 100 μl of PBS; • Group 2: 50 μg of Ova into 100 μl PBS; • Group 3: 50 μg of Ova with 1 μg αGalCer; • Group 4: 50 μg of Ova with 1 μg PBS-11 • Group 5: 50 μg of Ova with 1 μg PBS-14 • Group 6: 50 μg of Ova with […] PBS-57 • Group 7: 50 μg of Ova with 1 μg PBS-96
Experiment B: • Group 1: 100 μl of PBS; • Group 2: 50 μg of Ova into 100 μl PBS; • Group 3: 50 μg of Ova with 100 ng αGalCer; • Group 4: 50 μg of Ova with 100 ng PBS-11 • Group 5: 50 μg of Ova with 100 ng PBS-14 • Group 6: 50 μg of Ova with 100 ng PBS-57 • Group 7: […] of Ova with 100 ng PBS-96 A second injection was administered to the mice on day 14 and blood was collected from the mice on day 21. The lymphocytes were collected and analyzed by FACS analysis using H-2K^b SIINFEKL pentamer and CD8 antibody to detect CD8+ T cells responsive to OVA.

[3] = tested on: OVA-specific IgG2a; test: OVA-specific IgG2a ELISA after intramuscular immunization; type: in vivo, mouse; conditions: FIG. 12; IM, 50 μg OVA with 100 ng adjuvant, 14 days post-injection
Procedure: Mice (6 per group) were injected intramuscularly with 50 μg of OVA either alone or in combination with 100 ng of the indicated adjuvants (Freund's adjuvant was used as a positive control) as follows: • Group 1: […] of Ova with CFA/IFA (Positive control) • Group 2: 50 μg of Ova • Group 3: 50 μg of Ova and 100 ng of αGalCer • Group 4: 50 μg of Ova and 100 ng of PBS-11 • Group 5: 50 μg of Ova and 100 ng of PBS-14 • Group 6: 50 μg of Ova and 100 ng of PBS-57 • Group 7: 50 μg of Ova and 100 ng of PBS-96 At 14 days post-injection, blood samples were collected and ELISAs for IgG1 and IgG2a were performed using mouse monoclonal antibodies specific for OVA isotype IgG1 or IgG2a. The results are shown as the titer of the antibody in peripheral blood in ng/ml. The results for IgG1 are depicted in FIG. 11 and those for IgG2a are depicted in FIG. 12.

[4] = Example 6 Experiment A, FIG. 9, 50 μg Ova with 1 μg adjuvant
[5] = Example 6 Experiment B, FIG. 10, 50 μg Ova with 100 ng adjuvant

Row | Molecule | specific lysis of Ova-specific target cells in blood [1] | percentage of specific lysis of the target cells by CD8+ T cells [1] | percentage of OVA specific CD8+ T cells (SIINFEKL pentamer) [2, 4] | average Ova-specific cytotoxic response (percent specific lysis) [1] [%] | average OVA-specific cytotoxic response (percent specific lysis) [1] [%] | enhancement of the CD8+ T cell response at low doses (specific lysis) [1] | OVA specific IgG2a titer in peripheral blood [3] | percentage of OVA specific CD8+ T cells (SIINFEKL pentamer) [2, 5]
1 | CCCCCCCCCCCCCCCCCCCCCCCCCC(=O)N[C@@H](CO[C@H]1O[C@H](CNC(=O)CCCC[C@@H]2SC[C@@H]3NC(=O)N[C@@H]32)[C@H](O)[C@H](O)[C@H]1O)[C@H](O)[C@H](O)CCCCCCCCCCCCCC [PBS-11, reference compound] | did not result in specific lysis of cells | indistinguishable from the controls | not as effective | – | – | – | – | –
2 | CCCCCCCCCCCCCCCCCCCCCCCCCC(=O)N[C@@H](CO[C@H]1O[C@H](CNC(C)=O)[C@H](O)[C@H](O)[C@H]1O)[C@H](O)[C@H](O)CCCCCCCCCCCCCC [PBS-14] | resulted in cytotoxic lysis of Ova-specific target cells | – | enhanced the percentage of OVA specific CD8+ T cells | 83.3±6.1 | 52.07±29.56 | unexpectedly better than other adjuvants | enhanced the OVA specific IgG2a titer about as well as Freund's adjuvant and much better than PBS-57 | surprisingly much better at enhancing the CD8+ T cell response
3 | CCCCCCCC/C=C\CCCCCCCCCCCCCC(=O)N[C@@H](CO[C@H]1O[C@H](CNC(C)=O)[C@H](O)[C@H](O)[C@H]1O)[C@H](O)[C@H](O)CCCCCCCCCCCCCC [PBS-57, reference compound] | – | indistinguishable from the controls | enhanced the percentage of OVA specific CD8+ T cells | 88.1±6.2 | 56.11±13.34 | – | – | –
4 | CCCCCCCCCCCCCCCCCCCCCCCC(=O)N[C@@H](CO[C@H]1O[C@H](CNC(C)=O)[C@H](O)[C@H](O)[C@H]1O)[C@H](O)[C@H](O)CCCCCCCCCCCCCC [PBS-96] | resulted in cytotoxic lysis of Ova-specific target cells | – | enhanced the percentage of OVA specific CD8+ T cells | 89.2±10.3 | 50.29±42.6 | unexpectedly better than other adjuvants | enhanced the OVA specific IgG2a titer about as well as Freund's adjuvant and much better than PBS-57 | surprisingly much better at enhancing the CD8+ T cell response
5 | CCCCCCCCCCCCCCCCCCCCCCCCCC(=O)N[C@@H](CO[C@H]1O[C@H](CO)[C@H](O)[C@H](O)[C@H]1O)[C@H](O)[C@H](O)CCCCCCCCCCCCCC [αGalCer, α-galactosyceramide, reference compound] | – | indistinguishable from the controls | not as effective | – | – | – | – | –
6 | B1 | – | – | – | 11.8±14.4 | 1.60±14.33 | – | – | –
